# Values of other authors, collected in US8067462B2, “Processes of making sesquiterpenoid tashironin, its analogs and their uses” (The Trustees of Columbia University in the City of New York, priority 2004, dated 2011).
# Test system: neurite growth
Molecule,concentration at which neurite growth is promoted (promotes neurite growth at concentrations as low as (Huang et al. 2001)) [µmol],neurotrophic activity (reported on isolation from the wood of illicium tashiroi (Fukuyama et al. 1995))
C[C@@H]1CC[C@@]2(O)C13CC(=O)C1(C)C2(C)CO[C@]1(O)[C@@H]3O [11-O-debenzoyltashironin],≥ 0.1,
tashironin,,inactive
